Measurements taken from patent US20120004289A1, “ANNEXIN A11 AND ASSOCIATED GENES AS BIOMARKERS FOR CANCER” (The Johns Hopkins University, priority 2009, published 2012).

Key:
Format in all cases: cell-based, human
[1] = system: 2008 cells; test: Cell cytotoxicity assay of cisplatin (CCK-8) in siRNA- or control-transfected 2008 cells; conditions: 72 hours
Method: (A and B) Cell proliferation assay. 2008 (A) or HEY (B) cells were treated with RNAi (A1) or -Ctr at the concentration of 40 nM for 3 days, respectively, and then plated at 3000 viable cells per well into 96-well plates. Every 24 hours, one plate was subjected to assay by CCK-8 kit. The data in each time point are averaged values from eight replicates (P<0.05). (C) Colony formation assay. 2008 cells were treated in the same way as above for 3 days and then plated at 3000 viable cells per well into six-well plates. Six days after plating, cells were fixed with methanol and stained with 0.1% crystal violet and colonies were counted. The experiment was performed in six replicates (P<0.01). (D) Cell cytotoxicity assay. 2008 cells were treated in same way as above for 3 days and then plated at 3000 viable cells per well into 96-well plates. After incubating overnight, cells were treated with various concentration of cisplatin diluted in 100 μl of conditioned medium (the final concentrations of cisplatin were 0, 1.56, 3.13, 6.25, 12.5, 25, 50, and 100 μg/ml). After continuous incubation for 72 hours, the plates were subjected to assay by CCK-8 kit. The experiment was performed in three replicates (P<0.01). Three independent experiments were performed for each assay. […] Cells were then collected, counted, and plated at 3000 viable cells per well into 96-well plates in a final volume of 100 μl. […]

[2] = system: 2008 cells; test: Time course of gene expression response to cisplatin, Agilent 44K whole genome oligo microarray; conditions: 10 μM cisplatin
Method: 2008 cells were cultured in T150 flasks and transfected with A1 or negative control for 2 days. Cells were then collected, counted, and placed into 100-mm dishes. After incubating overnight, transfected cells were at 50% confluence and treated with 10 μM cisplatin (Sigma-Aldrich, St. Louis, Mo.) for 0, 8, 16, and 24 hours and then harvested in two portions for both total RNA and total protein extractions at every single time point. The optimized dose and duration of cisplatin treatment were experimentally determined in a previous study. Total RNA was isolated using TRIZOL reagent (Invitrogen) followed by RNeasy mini kit with DNase on-column digestion (Qiagen, Valencia, Calif.). RNA was quantified with NanoDrop ND-1000 followed by quality assessment with the 2100 Bioanalyzer (Agilent Technologies, Santa Clara, Calif.) according to manufacturer's protocol. Total RNA was labeled using Agilent Low RNA Input Fluorescent Linear Amplification Kit (Agilent) following the manufacturer's instruction with minor modifications. Briefly, 0.4 μg of RNA was reverse transcribed into cDNA by MMLV-RT using an oligo dT primer (System Biosciences, Mountain View, Calif.) that incorporated a T7 promoter sequence. The cDNA was then used as a template for in vitro transcription in the presence of T7 RNA polymerase and cyanine-3-labeled CTPs (Perkin Elmer Life Sciences, Boston, Mass.). RNA spike-in controls (Agilent) were added to RNA samples before amplification and labeling. The labeled cRNA was purified using the RNeasy mini kit (Qiagen). A total of 0.825 μg of each Cy3-labeled sample was used for hybridization on Agilent 4×44K whole human genome microarray at 65° C. for 17 hours in a hybridization oven with rotation. After hybridization, slides were washed and dried using stabilization and drying solution according to the Agilent microarray processing protocol. Slides were scanned using the Agilent Microarray Scanner controlled by Agilent Scan Control 7.0 software. Microarray data were extracted with Agilent Feature Extraction 9.5.3.1 software and imported into GeneSpring GX 10 (Agilent). […]

[3] = system: 2008 cells; test: Real-time PCR validation of gene expression response to cisplatin; conditions: both groups of cells
Method: 2008 cells were cultured in T150 flasks and transfected with A1 or negative control for 2 days. Cells were then collected, counted, and placed into 100-mm dishes. After incubating overnight, transfected cells were at 50% confluence and treated with 10 μM cisplatin (Sigma-Aldrich, St. Louis, Mo.) for 0, 8, 16, and 24 hours and then harvested in two portions for both total RNA and total protein extractions at every single time point. The optimized dose and duration of cisplatin treatment were experimentally determined in a previous study. Total RNA was isolated using TRIZOL reagent (Invitrogen) followed by RNeasy mini kit with DNase on-column digestion (Qiagen, Valencia, Calif.). RNA was quantified with NanoDrop ND-1000 followed by quality assessment with the 2100 Bioanalyzer (Agilent Technologies, Santa Clara, Calif.) according to manufacturer's protocol. […]. One microgram of total RNA was used to generate cDNA using the iScript cDNA Synthesis Kit (Bio-Rad, Hercules, Calif.). […] An experiment consisted of triplicate amplification reactions for each gene product being analyzed. […] The cycle threshold number (CT) was determined for each PCR using iQ5 Real-time PCR Detection System (Bio-Rad). […] Results are expressed as relative abundance of a specific mRNA between control and experimental sample (fold change, mean±SD).

SMILES: N.N.[Cl][Pt][Cl] [cisplatin]
- fold increase of IC50 in RNAi cells compared with control cells [1]: 2.6 fold
- number of genes upregulated or downregulated more than two-fold vs 0 hour in both groups of cells ([2]; 8 hours): 6 genes
- number of genes upregulated or downregulated more than two-fold vs 0 hour in both groups of cells ([2]; 16 hours): 19 genes
- number of genes upregulated or downregulated more than two-fold vs 0 hour in both groups of cells ([2]; 24 hours): 47 genes
- PCSK9 gene expression (real-time PCR) ([3]; 10 μM cisplatin, 8, 16 and 24 hours): decreased at 8 hours but increased at 16 and 24 hours
- DHRS2 gene expression (real-time PCR) ([3]; 10 μM cisplatin, 16 and 24 hours): down-regulation
